In patent publication US7163960B2, “Treatment and prevention of inflammatory disorders” (Monsanto Technology L.L.C., priority 2002, dated 2007):
Marks after values point to notes of the source that are not given here.

Experiments:
Assay type in all cases: in vivo, human
TNF-α = TNF-α synthesis in LPS-treated whole blood; conditions: for TNF-α synthesis in LPS-treated whole blood: mean ± SD
Protocol: (§1) Following a 3-week run-in period, subjects ingested either ALA, SDA, EPA supplied as ethyl esters in capsules. Intakes were 0.75 g/day for 3 weeks followed by 1.5 g/day for the subsequent 3 weeks.
(§2) Blood (4 mL) was added to heparinised tubes, bacterial lipopolysaccharide (LPS) was added (200 ng/mL), and the mixture was incubated at 37° C., 5% CO2, for 24 h. Plasma was collected and assayed for prostaglandin E2 (PGE2) by radioimmunoassay (RIA), interleukin-1β (IL-1β) and tumor necrosis factor-α (TNF-α) by ELISA, as described in Mantzioris et al., supra.

prostaglandin E2 (PGE2) = test: PGE2 synthesis in LPS-stimulated whole blood; conditions: for PGE2 synthesis in LPS-stimulated whole blood: mean ± SD
Protocol: as §1, §2

IL-1β = IL-1β synthesis in LPS-treated whole blood; conditions: for IL-1β synthesis in LPS-treated whole blood: mean ± SD
Protocol: as §1, §2

[1] = Fatty acid analysis of blood cell phospholipids and plasma lipid fractions after ingestion of test fatty acids; conditions: both, human, in vivo
Description: 45 males and post-menopausal female—19–65 years of age, normolipidemic, and with a body mass index (BMI) in the range 20 to 30, were recruited. Exclusion criteria included bleeding disorders, hypertension, inflammatory disorders, active gastrointestinal diseases, chronic use of low dose aspirin, consumption of restaurant or takeaway evening meals more than twice per week, use of dietary supplements rich in n-3 or n-6 fatty acids, habitual consumption of more than 1 fish meal per month, and plasma phospholipid EPA+DHA levels>7.9% of total fatty acids (level achieved in the study group was 4.9±1.0% of total fatty acids).
as §1
At each visit, 36 mL of blood was taken by venepuncture after an overnight fast. Blood was aliquoted into various tubes for the following procedures.
Blood (20 mL) was added to tubes containing 4 mL 4.5% EDTA in water and 4 mL—6% dextran in normal saline, pH 7.0. Erythrocytes were allowed to sediment under gravity at 37° C. for 30 min. The leucocyte-rich plasma was layered onto LYMPHOPREP, density 1.077 (Nycomed Pharma, Oslo) and centrifuged at 110 g for 10 min to separate leucocytes from the platelets, which were removed. The gradient was further centrifuged at 200 g for 20 min to separate the neutrophils from mononuclear cells, which were removed.
Samples were processed for fatty acid analysis as described in Mantzioris et al., Am. J. Clin. Nutr., 72:42–8 (2000). Plasma, washed platelet and mononuclear cell pellets were stored at −80° C. Erythrocyte pellets were treated fresh with chloroform:isopropanol (2:1) and the lipid extracts stored at 4° C. Plasma, platelet and mononuclear cell pellets were extracted with chloroform:methanol. The cellular and plasma lipid extracts were fractionated by thin-layer chromatography. For the cellular extracts, the phospholipid fraction was retained and for the plasma extracts, the phospholipid, cholesterol ester, and triglyceride fractions were retained. These were transesterified by methanolysis (1% H2SO4 in methanol at 70° C. for 3 h). Fatty acid methyl esters were separated and quantified with a HEWLETT-PACKARD 6890 gas chromatograph equipped with a 50 m capillary column coated with BPX-70 (0.25 μm film thickness; SGE Pty Ltd, Victoria, Australia) (see Mantzioris et al., supra). Fatty acid standards were obtained from NuChek Prep Inc. (Elysian, Minn.) and included stearidonic acid obtained from Sigma Aldrich Pty Ltd. (Castle Hill, NSW, Australia). All organic solvents contained butylated hydroxy anisole (0.005%) as an antioxidant.

[2] = Week 3 (after 0.75 g/day for 3 weeks)
[3] = Week 6 (after 1.5 g/day for 3 weeks)
[4] = Week −3 (start of run-in, before dosing)

DHA (% of total fatty acids), Erythrocyte phospholipid ([1]; 0 week): 4.61 ± 0.71^b % of total fatty acids
DHA (% of total fatty acids), Plasma phospholipid ([1]; 0 weeks): 3.64 ± 0.65 % of total fatty acids
DPA (% of total fatty acids), Erythrocyte phospholipid ([1]; 0 weeks): 3:08 ± 0:35 % of total fatty acids
DPA (% of total fatty acids), Plasma phospholipid ([1]; 0 weeks): 1.39 ± 0.26^ab % of total fatty acids
EPA (% of total fatty acids), Monocyte ([1]; 0 weeks): 0.57 (0.11)a % of total fatty acids
EPA (% of total fatty acids), Plasma CE ([1]; 0 weeks): 1.16 (0.33)ab % of total fatty acids
EPA (% of total fatty acids), Plasma Phospholipid ([1]; 0 weeks): 1.16 (0.31)ab % of total fatty acids
EPA (% of total fatty acids), Plasma TG ([1]; 0 weeks): 0.27 (0.12) % of total fatty acids
EPA (% of total fatty acids), Platelet ([1]; 0 weeks): 0.48 (0.11)a % of total fatty acids
EPA (% of total fatty acids), Red Blood ([1]; 0 weeks): 0.88 (0.17)a % of total fatty acids
EPA (% of total fatty acids), Monocyte ([1]; 3 weeks): 0.63 (0.14)a3 % of total fatty acids
EPA (% of total fatty acids), Plasma CE ([1]; 3 weeks): 1.35 (0.58)bc2 % of total fatty acids
EPA (% of total fatty acids), Plasma Phospholipid ([1]; 3 weeks): 1.33 (0.54)bc3 % of total fatty acids
EPA (% of total fatty acids), Plasma TG ([1]; 3 weeks): 0.32 (0.13)2 % of total fatty acids
EPA (% of total fatty acids), Platelet ([1]; 3 weeks): 0.55 (0.14)a2 % of total fatty acids
EPA (% of total fatty acids), Red Blood ([1]; 3 weeks): 0.92 (0.23)a3 % of total fatty acids
EPA (% of total fatty acids), Monocyte ([1]; 6 weeks): 0.81 (0.28)b2 % of total fatty acids
EPA (% of total fatty acids), Plasma CE ([1]; 6 weeks): 1.41 (0.36)c3 % of total fatty acids
EPA (% of total fatty acids), Plasma Phospholipid ([1]; 6 weeks): 1.43 (0.40)c3 % of total fatty acids
EPA (% of total fatty acids), Plasma TG ([1]; 6 weeks): 0.34 (0.16)2 % of total fatty acids
EPA (% of total fatty acids), Platelet ([1]; 6 weeks): 0.64 (0.21)b2 % of total fatty acids
EPA (% of total fatty acids), Red Blood ([1]; 6 weeks): 1.01 (0.18)b3 % of total fatty acids
DHA (% of total fatty acids), Erythrocyte phospholipid ([1]; -3 week): 4.87 ± 0.74^a % of total fatty acids
DHA (% of total fatty acids), Plasma phospholipid ([1]; -3 weeks): 3.70 ± 0.63 % of total fatty acids
DPA (% of total fatty acids), Erythrocyte phospholipid ([1]; -3 weeks): 3.10 ± 0.40 % of total fatty acids
DPA (% of total fatty acids), Plasma phospholipid ([1]; -3 weeks): 1.29 ± 0.18^a % of total fatty acids
EPA (% of total fatty acids), Monocyte ([1]; -3 weeks): 0.67 (0.20)^a % of total fatty acids
EPA (% of total fatty acids), Plasma CE ([1]; -3 weeks): 1.11 (0.26)^a % of total fatty acids
EPA (% of total fatty acids), Plasma Phospholipid ([1]; -3 weeks): 1.07 (0.23)^a % of total fatty acids
EPA (% of total fatty acids), Plasma TG ([1]; -3 weeks): 0.26 (0.08) % of total fatty acids
EPA (% of total fatty acids), Platelet ([1]; -3 weeks): 0.44 (0.12)^a % of total fatty acids
EPA (% of total fatty acids), Red Blood ([1]; -3 weeks): 0.88 (0:16)^a % of total fatty acids
Compound: CC/C=C\C/C=C\C/C=C\CCCCCCCC(=O)O [ALA, α-linolenic acid]
Effect on LPS-stimulated TNF synthesis (TNF-α; 1.5 g/day): statistically significant decreases
TNF-α synthesis in LPS-treated whole blood (TNF-α; Week 0 (baseline)): 36.8 ± 17.4^a ng/mL
TNF-α synthesis in LPS-treated whole blood (TNF-α; [2]): 32.7 ± 11.9^a ng/mL
TNF-α synthesis in LPS-treated whole blood (TNF-α; [3]): 25.3 ± 7.2^b ng/mL
TNF-α synthesis in LPS-treated whole blood (TNF-α; [4]): 30.9 ± 13.1^a ng/mL
Effect on LPS-stimulated PGE2 synthesis (prostaglandin E2 (PGE2); 1.5 g/day): no change
Effect on LPS-stimulated PGE2 synthesis (prostaglandin E2 (PGE2); Visit 3, following ingestion of 0.75 g): statistically significant increases
PGE2 synthesis in LPS-stimulated whole blood (prostaglandin E2 (PGE2); Week 0 (baseline)): 4.63 ± 2.21^a ng/mL
PGE2 synthesis in LPS-stimulated whole blood (prostaglandin E2 (PGE2); [2]): 6.25 ± 3.00^b ng/mL
PGE2 synthesis in LPS-stimulated whole blood (prostaglandin E2 (PGE2); [3]): 4.30 ± 1.37^a ng/mL
PGE2 synthesis in LPS-stimulated whole blood (prostaglandin E2 (PGE2); [4]): 4.00 ± 1.65^a ng/mL
Effect on LPS-stimulated IL-1β synthesis (IL-1β; 0.75 g/day or 1.5 g/day (either dose)): no effect
IL-1β synthesis in LPS-treated whole blood (IL-1β; Week 0 (baseline)): 96.9 ± 30.9 ng/mL
IL-1β synthesis in LPS-treated whole blood (IL-1β; [2]): 87.3 ± 29.9 ng/mL
IL-1β synthesis in LPS-treated whole blood (IL-1β; [3]): 83.3 ± 24.0 ng/mL
IL-1β synthesis in LPS-treated whole blood (IL-1β; [4]): 97.9 ± 27.4 ng/mL
